# In patent US20070141714A1, “Method to detect small molecules binding to proteins using surface enhanced Raman scattering (SERS)” (Intel Corporation, priority 2005, published 2007):
# Legend:
# protein kinase A (PKA) = protein kinase A (PKA) (Homo sapiens, UniProt P17612); experiment: SERS detection of small molecule binding to protein after size exclusion spin column; conditions: 2.5 μM H-89, 0.2 mg/mL protein, PKA reaction buffer, 30 minutes at room temperature; flow through, difference of SERS spectra at 70° C. and room temperature
# Protocol: In FIG. 2 small molecules and proteins are mixed in a purification column such as a size exclusion spin column and are allowed to incubate for a period of time. The incubation times depends on the binding affinity between the small molecule and the protein. Typically an incubation time of 10-30 minutes at room temperature is sufficient. The solvent used in the purification column is preferably chosen to optimize binding between the small molecules and the proteins. For example, PKA reaction buffer (50 mM Tris-HCl, 10 mM MgCl2) is preferably used for optimal binding between PKA and H-89.
# For example, molecules with molecular weights below a certain cut-off value are retained in the size-exclusion type purification columns while protein molecules are collected in the flow through. Any small molecules that bind to the protein can also be carried through the column with the protein and recovered in the flow through. Raman spectroscopy using SERS active particles can be used to detect the small molecules in the flow through.
# In FIG. 2-2 the small molecules are first released from the proteins in the flow through by, for example, heating the flow through. Raman spectroscopy is then again used to detect the presence of the small molecules in the flow through.
# H-89 is a known small molecule inhibitor to protein kinase A (PKA). […]
# Histone = experiment: SERS detection of small molecule binding to protein after size exclusion spin column (negative control protein); conditions: 2.5 μM H-89, 0.2 mg/mL protein, same procedure
# Protocol: (§1) PIERCE ZEBA-ZEBA desalt spin columns (cat #89882) were washed 10 times with methanol and 10 times with purified water. H-89 was then mixed with PKA or control proteins in a PKA reaction buffer (50 mM Tris-HCl, 10 mM MgCl2), making a final H-89 concentration of 2.5 μM and protein concentration of 0.2 mg/mL. This mixture was incubated at room temperature for 30 minutes, added to a desalting size exclusion spin column, and spun at 1500 g for 2 minutes to remove free H-89.
# (§2) The silver colloids are aggregated by 0.5M of Lithium Chloride prior to addition of the sample. Ten spectra are collected from the mixture of sample and aggregated silver colloids. The remaining flow through is heated at 70° C. for 10 minutes, and another SERS measurement is performed. The line labeled PKA is the arithmetic difference in the SERS spectrums at 70° C. and room temperature (intensity on the primary y-axis). The main characteristic peaks of H-89 are visible and marked by black arrows.
# (§3) The same procedure described above is repeated with other proteins including bovine serum albumin (labeled BSA), immunoglobulin G (labeled IgG), and Histone (labeled as Histone) as negative controls. The SERS spectrum corresponding to H-89 is not seen in any of these controls.
# immunoglobulin G (IgG) = experiment: as above; conditions: 2.5 μM H-89, 0.2 mg/mL protein, same procedure
# Protocol: as §1, §2, §3
# [1] = target: bovine serum albumin (BSA) (Bos taurus, UniProt P02769); experiment: as above; conditions: 2.5 μM H-89, 0.2 mg/mL protein, same procedure
# Sequence of bovine serum albumin (BSA) (P02769 25-607): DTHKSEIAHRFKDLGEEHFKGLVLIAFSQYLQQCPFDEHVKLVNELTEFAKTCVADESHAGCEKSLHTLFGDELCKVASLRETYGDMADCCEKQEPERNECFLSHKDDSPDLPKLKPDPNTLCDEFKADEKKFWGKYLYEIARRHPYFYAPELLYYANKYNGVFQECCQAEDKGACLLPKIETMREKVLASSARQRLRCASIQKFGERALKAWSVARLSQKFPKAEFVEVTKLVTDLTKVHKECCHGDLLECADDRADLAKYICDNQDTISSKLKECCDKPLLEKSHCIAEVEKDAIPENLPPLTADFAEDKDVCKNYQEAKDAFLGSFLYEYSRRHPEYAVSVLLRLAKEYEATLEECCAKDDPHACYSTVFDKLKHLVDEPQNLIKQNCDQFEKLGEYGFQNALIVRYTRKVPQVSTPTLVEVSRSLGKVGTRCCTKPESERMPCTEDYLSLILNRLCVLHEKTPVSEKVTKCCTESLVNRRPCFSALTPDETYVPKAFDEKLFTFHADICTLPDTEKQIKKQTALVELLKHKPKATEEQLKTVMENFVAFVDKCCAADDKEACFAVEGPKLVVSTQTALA
# Protocol: as §1, §2, §3
compound,measurement,setting,value
O=S(=O)(NCCNC/C=C/c1ccc(Br)cc1)c1cccc2cnccc12 [H-89],binding to PKA (characteristic H-89 peaks in SERS difference spectrum),protein kinase A (PKA),there was binding of H-89 to PKA
same,specific binding to Histone (SERS spectrum corresponding to H-89),Histone,specific binding of H-89 to the control proteins did not occur
same,specific binding to IgG (SERS spectrum corresponding to H-89),immunoglobulin G (IgG),specific binding of H-89 to the control proteins did not occur
same,specific binding to BSA (SERS spectrum corresponding to H-89),[1],specific binding of H-89 to the control proteins did not occur
